US20060252026A1, “Cryopreservation method for bivalve oocytes” (priority 2005, published 2006)

Tests used:
[1] = system: Pacific oyster (Crassostrea gigas) oocytes; assay: Post-thaw fertilisation assay of cryopreserved oocytes; format: cell-based; conditions: for post-thaw fertilisation rate: Example 2.9, ten percent EG
Method: Cryopreservation straws (0.25 cc, IMV, France) were then loaded with the solution containing oocytes and CPA, sealed with PVC powder and laid flat on a rack. The total time at room temperature was 20 min. Loaded straws were placed into Cryogenesis freezers (Cryologic Pty Ltd, Mt Waverly, Australia) and held at 0° C. for 5 min. […] Following the hold period, the freezers were then programmed to cool at various rates (standard: 1° C. min^-1) to -35° C. at which temperature the straws were plunged into liquid nitrogen and stored. After up to 24 h storage, the straws were thawed by placing into a water bath at 28° C. […] After dilution, the thawed oocytes along with unfrozen oocytes from the same batch (controls) were fertilised using the miniaturised fertilisation assay described previously ([…] Smith, R D Roberts, A R Janke, […] Pugh, S C Webb, N G King, Aquaculture (2004) 242, 271). […] Duplicate assays were conducted on each straw and assays included a negative control where no sperm were added to check for parthenogenetic activation. […] All CPA concentrations are the final post-dilution levels. Fertilisation results from each experiment were used to determine factors to be evaluated in subsequent experiments. […] Each pool comprised oocytes from 4 to 8 oysters. […] Three new pools were selected from 11 available pools for Examples 2.4 to 2.6.

[2] = system: Pacific oyster (Crassostrea gigas) oocytes; conditions: Example 2.7
Method: Approximately 2.2 million unfrozen or thawed oocytes from 8 individuals were added to 500 mL of SW and fertilised at a ratio of 100 sperm per oocyte. After a contact time of ˜12 min, the fertilised oocytes were transferred into tanks containing 150 L of SW and 1 mg L^−1 EDTA at 23° C. After 24 h, the tanks were drained through a 45-μm mesh and subsamples taken to determine the percentage of oocytes reaching D-larvae in each treatment.
The number of D-larvae was standardized for each female so that the four rearing tanks (2×cryopreserved and 2×unfrozen) all contained the same number of larvae. The larvae were resuspended in 2.5 L tanks in a continuous exchange larval rearing system and fed a mixed diet of Chaetoceros calcitrans and Isochrisis galbana (A Janke, H Kaspar, N King, S Foster, Abstracts of the World Aquaculture Society Conference, 1st-4th Mar. 2004, Hawaii, World Aquaculture Society, Louisiana State University, Baton Rouge, La., (2004), 312). Tanks were cleaned and larvae screened every second day to remove dead, abnormal or slow-growing larvae. Competent larvae were induced to metamorphose by bath application of 10^−4 M epinephrine (S L Coon, D B Bonar, Journal of Experimental Marine Biology and Ecology, (1985), 94, 211) for 3 to 5 h. […] The number of D-larvae in each treatment that developed to eyed larvae stage and spat was determined. […]

[3] = system: Eastern Oyster (Crassostrea virginica) oocytes; conditions: Me2SO or sucrose as CPA; cited from earlier work
Pacific oyster oocytes [4] = conditions: Me2SO as CPA; cited from earlier work
Pacific oyster oocytes [5] = conditions: Me2SO as CPA in the presence of trehalose; cited from earlier work

OC[C@H]1O[C@H](O[C@H]2O[C@H](CO)[C@@H](O)[C@H](O)[C@H]2O)[C@H](O)[C@@H](O)[C@@H]1O [trehalose]
effect on oocyte fertilisation post-thaw ([1]; Example 2.2, trehalose above 0.1 M added to 10% EG in MQ): significant reduction in fertilisation

OCCO [EG, ethylene glycol]
post-thaw fertilisation ([1]; Example 2.10, 10% EG in MQ, thawed in water bath at 3° C.): 79%
post-thaw fertilisation ([1]; Example 2.10, 10% EG in MQ, thawed in water bath at 28° C.): 71%
post-thaw fertilisation ([1]; Example 2.10, 10% EG in MQ, thawed in water bath at 60° C.): 61%
post-thaw fertilisation ([1]; Example 2.10, 10% EG in MQ, thawed in water bath at 90° C.): 52%
oocyte fertilisation post-thaw ([1]; Example 2.1, 100% EG (so in the source) in MQ with 0.85% w/v PVP, standard freezing/thawing): Highest fertilisation rates
oocyte fertilisation post-thaw, effect of holding temperature ([1]; Example 2.5, 10% EG in MQ, holding for 5 min at either −10 or −12° C.): best results
oocyte fertilisation post-thaw, effect of freezing rate ([1]; Example 2.6, 10% EG in MQ, slowest post-hold cooling rate (0.3° C. min−1)): best results
oocyte fertilisation post-thaw ([1]; Example 2.7, 10% EG in MQ, no PVP, −10° C. hold, 0.3° C. min−1 to −35° C., mean±se): 52.1±1.2%
post-thaw fertilisation ([1]; Example 2.8, 10% EG in MQ, plunging at −25° C.): 5%
post-thaw fertilisation ([1]; Example 2.8, 10% EG in MQ, plunging at −35° C.): 72%
post-thaw fertilisation ([1]; Example 2.8, 10% EG in MQ, plunging at −45° C.): 76%
post-thaw fertilisation rate ([1]; held at −16° C. for 5 min): 31%
post-thaw fertilisation rate ([1]; held at −20° C. for 5 min): 3%
percentage of fertilised oocytes developing to D-larvae, fresh versus cryopreserved ([2]; P=0.126): no significant difference
proportion of larvae developing to eyed larvae or spat, fresh versus cryopreserved ([2]; P=0.516 and 0.418): no difference

OC[C@H]1O[C@@](CO)(O[C@H]2O[C@H](CO)[C@@H](O)[C@H](O)[C@H]2O)[C@@H](O)[C@@H]1O [sucrose]
fertilisation of oocytes after cryopreservation [3]: none of the oocytes were able to be fertilised
oocytes staining as live after cryopreservation [3]: 7%

C[S+](C)[O-] [Me2SO, dimethyl sulfoxide]
fertilisation of oocytes after cryopreservation [3]: none of the oocytes were able to be fertilised
oocytes staining as live after cryopreservation [3]: 7%
outcome of cryopreservation attempt (Pacific oyster oocytes [4]): entirely unsuccessful
oocyte fertilisation post-thaw ([1]; Example 2.1, 15% Me2SO in MQ with 0.85% w/v PVP, standard freezing/thawing): Highest fertilisation rates
fertilisation achieved with the thawed oocytes (Pacific oyster oocytes [5]): less than 0.5%
thawed oocytes developing to D-larvae (Pacific oyster oocytes [5]): less than 0.005%

CO [methanol]
oocyte fertilisation post-thaw ([1]; Example 2.1, methanol 2.5, 5, 10% v/v in MQ with 0.85% w/v PVP, standard freezing/thawing): No oocytes were fertilised
